# Paper PMC9138545, “Incorporation of Oxidized Phenylalanine Derivatives into Insulin Signaling Relevant Proteins May Link Oxidative Stress to Signaling Conditions Underlying Chronic Insulin Resistance” (Biomedicines, 2022)
# Experiments:
# 3T3-L1 adipocytes = experiment: HPLC of non-protein-bound intracellular tyrosines; type: cell-based, mouse; settings: for cellular uptake of amino acids (non-protein-bound intracellular content): 5 or 25 mmol/L glucose, with or without 400 nmol/L insulin; for uptake by fat cells: time-dependent incubation
# Protocol: Early passages of mouse embryo fibroblast (3T3-L1) (ATCC, Manassas, VA, US) were cultured in Dulbecco’s modified Eagle medium (DMEM, Sigma Aldrich, Budapest, Hungary, CAT number: D6046; Invitrogen, Waltham, MA, USA, CAT number: 41966-029) supplemented with 100 U/mL penicillin, 0.1 mg/mL streptomycin (Gibco, Budapest, Hungary, CAT number: 15070-063) and 10% heat-inactivated Fetal Bovine Serum (FBS, Gibco, CAT number: 16170-078), supplemented with 398 nM p-, m-, or o-Tyr (equimolar to the original p-Tyr content of the medium) purchased from Sigma (CAT number: para-Tyr: T8566, m-Tyr: T3629, o-Tyr: 93851). Media contained 25 or 5 mmol/L glucose (experiment dependent) pyruvate and L-glutamine. Cells were grown at 37 °C and 5% CO2. Adipocyte differentiation was achieved by DMEM supplemented with 10% FBS (Gibco, Csertex, Budapest, Hungary, CAT number: 10106-169) (FBS) and a […] insulin (Sigma Aldrich, Budapest, Hungary, CAT number: I 9278), […] isobuthylmethylxanthine (Sigma Aldrich, Budapest, Hungary, CAT number: I 5879), and 250 nmol/L dexamethasone (Sigma Aldrich, Budapest, Hungary, CAT number: 861871) containing cocktail. From day 4 onward, cultures were maintained in DMEM containing 1.5 μg/mL insulin and 10% FBS with a medium change every other day until experimental treatments were started. After 90% of the cell population reached the adipocyte phenotype, prior to all treatments, cells were incubated overnight in serum-deprived medium. Experimental treatment was performed in serum-deprived medium containing 200 or 400 nmol/L insulin, for 5 min.
# To measure the total intracellular non-protein-bound tyrosine concentration, prior to the freezing of samples overnight at −70 °C to achieve cell lysis, 200 μL distilled water was added to each. After melting up, samples were centrifuged for 15 min at 15,000 rpm. A total of 200 µL of the supernatant was mixed with 200 µL of 60% trichloroacetic acid. After 30 min incubation on ice, samples were centrifuged again at 15,000 rpm for 15 min. Then, the supernatant was filtered and was diluted 5-fold and then 160 µL distilled water was added to 40 µL of filtrate, followed by the injection of the mixture onto the HPLC column.
# The amounts of p-, o-, m-Tyr and Phe in the samples were determined by measuring their autofluorescence. Thus, no derivatization or staining was needed. Samples were measured on a Shimadzu Class 10 HPLC system equipped with an RF-10 AXL fluorescent detector (Shimadzu USA Manufacturing Inc., Canby, OR, USA). The mobile phase consisted of 1% sodium acetate and 1% acetic acid dissolved in water. The separation took place on a LiChroCHART 250-4 column (Merck KGaA, Darmstadt 64271, Germany) in an isocratic run. Wavelengths of 275 nm for excitation and 305 nm for emission were used to assess p-, o- and m-Tyr, while Phe was detected at 258 nm excitation and 288 nm emission wavelengths. Determination of the area under the curve (AUC) plus external standard calibration was used to calculate the precise concentrations of the amino acids.
# erythroblasts = settings: ref [43]; cited from earlier work
# Text: Furthermore, m- and o-Tyr may have a role beyond being markers ROS attack. […] For example, we have described that patients on renal replacement therapy show a connection between plasma levels of o-Tyr and erythropoietin (EPO) resistance. In a further set of experiments, m- and o-Tyr in ...
# [1] = system: GLUT4 and vimentin in podocytes; experiment: Immunofluorescence of GLUT4 and vimentin in insulin-treated podocytes; type: cell-based, human; settings: for GLUT4 membrane localization: 400 nmol/l insulin for 10 min
# Protocol: The conditionally immortalized human podocyte cell line (provided by Moin Saleem, University of Bristol, UK) was cultured in RPMI1640 medium (R8756, Sigma Aldrich, Budapest, Hungary) supplemented with 10% heat-inactivated FBS (16170-078, Gibco, Budapest, Hungary), insulin-transferrin-selenium supplement (41400-045, Gibco), 100 U/mL penicillin, 0.1 mg/mL streptomycin (P4333, Sigma), and […] (equimolar to the original p-Tyr content of the medium) para-, meta-, or ortho-Tyr. The cells were grown at 33 °C 5% CO2, and when they reached 40–60% confluency they were transferred to 37 °C to differentiate. Following the thermoswitching, cells were kept on RPMI1640 medium containing 2% FBS, antibiotics, and different tyrosines. Before every treatment, cells were incubated in serum-deprived medium overnight.
# In a 6-well plate, 104 cells were cultured on glass coverslips washed with alcohol and dried under UV light. The podocyte cells were grown in RPMI1640 medium supplemented with 10% heat-inactivated FBS at 33 °C, 5% CO2. When they reached 60% confluence, the medium was changed to RPMI1640 medium containing 2% FBS and 112.05 nM of the different tyrosine isoforms, then the plates were transferred to 37 °C, 5% CO2 to allow the cells to differentiate. The different tyrosine isoforms were added to the maintenance medium. The cells were serum deprived overnight, then incubated with 400 nmol/l insulin for 10 min. After removal of the medium, the coverslips were washed twice with PBS. The cells were fixed at room temperature in 2% paraformaldehyde and 4% sucrose for 8 min, then permeabilized using 0.3% Trion X-100 in 1xPBS for 20 min and blocked in 2.5% BSA for 45 min [45]. The primary antibody was diluted in 1xPBS, and the cells were incubated in it for 60 min in humid conditions. The antibodies we used were mouse anti-WT1 antibody (H-1) (1:100, Santa Cruz Biotechnology, Dallas, TX, USA), chicken anti-vimentin antibody (1:100, Abcam), rabbit anti-glucose transporter GLUT4 antibody (1:100, Abcam, Cambridge, UK), mouse Insulin Receptor Substrate-1 antibody (1:100, Invitrogen, Waltham, MA, USA), and rabbit anti-phospho-Insulin Receptor Substrate-1 (pTyr612) antibody (1:10, Sigma). Coverslips were washed in PBS three times for 5 min in PBS and incubated in the fluorophore-conjugated secondary antibodies anti-goat, anti-chicken, secondary antibody Alexa fluor 647, anti-rabbit Alexa fluor 350, and anti-mouse Alexa Fluor 488 (1:10, Invitrogen) for 60 min. Samples were then washed in PBS three times for 5 min and mounted in Vectashield (Vector Laboratories). Images were taken with a Nikon Eclipse Ti2 microscope.
smiles,measurement,setting,value
"N[C@@H](Cc1cccc(O)c1)C(=O)O [m-Tyr, meta-tyrosine]",cellular uptake of amino acids (non-protein-bound intracellular content),3T3-L1 adipocytes,continuous uptake of amino acids which was independent of glucose concentration (5 or 25 mmol/L) and the presence of insulin
same,uptake by fat cells,3T3-L1 adipocytes,Taken Up by Fat Cells within Several Minutes
same,EPO-dependent proliferation of erythroblasts,erythroblasts,"inhibited the EPO-dependent proliferation of erythroblasts, in a time- and dose-dependent manner"
same,vimentin filaments,[1],thicker vimentin filaments
same,GLUT4 membrane localization,[1],slightly visible
"NC(Cc1ccccc1O)C(=O)O (stereo not shown) [o-Tyr, ortho-tyrosine]",cellular uptake of amino acids (non-protein-bound intracellular content),3T3-L1 adipocytes,continuous uptake of amino acids which was independent of glucose concentration (5 or 25 mmol/L) and the presence of insulin
same,uptake by fat cells,3T3-L1 adipocytes,Taken Up by Fat Cells within Several Minutes
same,EPO-dependent proliferation of erythroblasts,erythroblasts,"inhibited the EPO-dependent proliferation of erythroblasts, in a time- and dose-dependent manner"
same,vimentin filaments,[1],thicker vimentin filaments
same,GLUT4 membrane localization,[1],"not characteristic in o-Tyr treated cells, which shows rather a perinuclear localization"
